Earlier results in article PMC4585962, “A peptide factor secreted by Staphylococcus pseudintermedius exhibits properties of both bacteriocins and virulence factors” (Scientific Reports, 2015).

What was measured:
mammalian cells = conditions: cited from earlier work
Excerpt: In addition to the evident bactericidal activity of BacSp222, the most intriguing findings are its cytotoxic and modulatory effects on mammalian cells. Generally, peptide bacteriocins are considered to be noncytotoxic. However, the first known bacterial toxin active against eukaryotic and prokaryotic cells was a cytolysin produced by Enterococcus faecalis.

[1] = tested on: Galleria mellonella larvae; conditions: degradation or inactivation by host agents; cited from earlier work
Description: (§1) BacSp222 remains active upon even prolonged incubation at elevated temperature and is exceptionally resistant to proteases in vitro. The former feature is quite common for bacteriocins, which, in combination with the virtual lack of cytotoxicity, contributes to common and successful application of bacteriocins in the food industry as preservatives, either in the form of additives or as coating agents for packaging materials. […] Resistan ...

proteases = conditions: cited from earlier work
Description: as §1

Row | Substance | concentrations with adverse effects on mammalian cells (mammalian cells) | other results
1 | bovicin HC5 | tens to hundreds | 
2 | nisin: low molecular weight bacteriocin produced by lactic acid bacteria (ITSISLCTPGCKTGALMGCNMKTATCHCSIHVSK; not fully specified; Lantibiotic nisin-A; UniProt P13068 24-57, looked up) | tens to hundreds | 
3 | epidermicin NI01 |  | time to loss of bacteriocin activity after administration [1]: lost within less than an hour
4 | aureocin A53 |  | resistance to proteases (proteases): Resistance to proteases
